According to patent US8287923B2, “Compositions and methods for treating immune disorders” (priority 2005, dated 2012):

System: NHEK
Assay: Affymetrix gene array analysis, inflammatory gene expression
Format: cell-based, human
Conditions: 100 μM, vs time 0
Procedure: The gene array experiment was performed at the Core Facility of Genomics of the Medical College of Georgia, according to the instructions of the manufacturer (Affymetrix, Santa Clara, Calif.). Briefly, NHEK and OSC2 cells treated with 100 μM EGCG for different time period were extracted for total RNA, the RNA was processed for probes and hybridized with a cDNA microarray (HuG133A, Affymetrix) which represents 22,283 human series. DNA chips were read with a Hewlett-Packard GeneArray Scanner at a resolution of […] and were analyzed with the GeneSpring software (Silicon Genetics, Redwood City, Calif.). Details of this analysis will be published elsewhere (Hsu et al., manuscript in preparation).

O=C(O[C@@H]1Cc2c(O)cc(O)cc2O[C@@H]1c1cc(O)c(O)c(O)c1)c1cc(O)c(O)c(O)c1 [EGCG, (−)-epigallocatechin-3-gallate]
BMP2 (205290_s_at) expression (0.5 h): 0.32 fold
IFNGR1 (202727_s_at) expression (0.5 h): 0.79 fold
IL1A (210118_s_at) expression (0.5 h): 0.66 fold
IL1B (39402_at) expression (0.5 h): 0.29 fold
IL1B (205067_at) expression (0.5 h): 0.29 fold
IL6R (205945_at) expression (0.5 h): 0.48 fold
IL6ST (21100_s_at) expression (0.5 h): 0.34 fold
IL8 (202859_x_at) expression (0.5 h): 6.02 fold
IL10RB (209575_at) expression (0.5 h): 0.43 fold
IL13RA2 (206172_at) expression (0.5 h): 0.33 fold
IL18 (206295_at) expression (0.5 h): 0.33 fold
TNFSF15 (221085_at) expression (0.5 h): 0.52 fold
p38 (21156_x_at) expression (0.5 h): 2.32 fold
p38 (202530_at) expression (0.5 h): 2.51 fold
BMP2 (205290_s_at) expression (2 h): 0.96 fold
IFNGR1 (202727_s_at) expression (2 h): 0.91 fold
IL1A (210118_s_at) expression (2 h): 0.42 fold
IL1B (39402_at) expression (2 h): 0.48 fold
IL1B (205067_at) expression (2 h): 0.58 fold
IL6R (205945_at) expression (2 h): 0.69 fold
IL6ST (21100_s_at) expression (2 h): 0.28 fold
IL8 (202859_x_at) expression (2 h): 9.55 fold
IL10RB (209575_at) expression (2 h): 0.63 fold
IL13RA2 (206172_at) expression (2 h): 0.74 fold
IL18 (206295_at) expression (2 h): 0.65 fold
TNFSF15 (221085_at) expression (2 h): 1.56 fold
p38 (21156_x_at) expression (2 h): 1.46 fold
p38 (202530_at) expression (2 h): 1.09 fold
BMP2 (205290_s_at) expression (6 h): 0.72 fold
IFNGR1 (202727_s_at) expression (6 h): 0.45 fold
IL1A (210118_s_at) expression (6 h): 0.54 fold
IL1B (39402_at) expression (6 h): 0.40 fold
IL1B (205067_at) expression (6 h): 0.49 fold
IL6R (205945_at) expression (6 h): 0.31 fold
IL6ST (21100_s_at) expression (6 h): 0.99 fold
IL8 (202859_x_at) expression (6 h): 9.99 fold
IL10RB (209575_at) expression (6 h): 0.76 fold
IL13RA2 (206172_at) expression (6 h): 0.81 fold
IL18 (206295_at) expression (6 h): 0.70 fold
TNFSF15 (221085_at) expression (6 h): 0.67 fold
p38 (21156_x_at) expression (6 h): 1.62 fold
p38 (202530_at) expression (6 h): 0.63 fold
BMP2 (205290_s_at) expression (24 h): 0.44 fold
IFNGR1 (202727_s_at) expression (24 h): 0.92 fold
IL1A (210118_s_at) expression (24 h): 0.27 fold
IL1B (39402_at) expression (24 h): 0.27 fold
IL1B (205067_at) expression (24 h): 0.26 fold
IL6R (205945_at) expression (24 h): 0.69 fold
IL6ST (21100_s_at) expression (24 h): 0.61 fold
IL8 (202859_x_at) expression (24 h): 9.93 fold
IL10RB (209575_at) expression (24 h): 0.38 fold
IL13RA2 (206172_at) expression (24 h): 0.55 fold
IL18 (206295_at) expression (24 h): 0.65 fold
TNFSF15 (221085_at) expression (24 h): 0.63 fold
p38 (21156_x_at) expression (24 h): 2.51 fold
p38 (202530_at) expression (24 h): 1.17 fold
